According to patent EP3436024B1, “3-BETA-METHOXY-PREG FOR USE IN THE TREATMENT OF TREATMENT RESISTANT DEPRESSION” (Mapreg, priority 2016, dated 2017):

Legend:
[1] = biological target: T1, Muscarinic (Cholinergic) M2 (Homo sapiens, UniProt P08172); experiment: CNS receptor binding assay, M2; details: MAP4343 10 µM; [^3H] AF-DX 384; Human recombinant (CHO cells); read-out: % Inhibition of control specific binding
T1 construct: expressed in transfected cells; host or cells: CHO cells
Method: (§1) MAP4343 has been screened for in vitro affinity to 80 different CNS neurotransmitters receptors using various validated binding assays.
(§2) Table 4. In vitro affinity of MAP4343 (10 µM) for CNS neurotransmitter receptors associated with side effects and/or abuse liability. Data are the average of two individual assays for each receptor and are expressed as % inhibition of the control specific binding of the reference compound. Results showing an inhibition higher than 50% are considered to represent significant effects of the test compound.

[2] = biological target: T2, Muscarinic (Cholinergic) M5 (Homo sapiens, UniProt P08912); experiment: CNS receptor binding assay, M5; details: MAP4343 10 µM; [^3H] 4-DAMP; Human recombinant (CHO cells); read-out: % Inhibition of control specific binding
T2 construct: expressed in transfected cells; host or cells: CHO cells
Method: as §1, §2

[3] = system: Noradrenergic α2; experiment: CNS receptor binding assay, α2; details: MAP4343 10 µM; [^3H] RX 821002; rat cerebral cortex
Method: as §1, §2

[4] = biological target: Noradrenergic Transporter (Homo sapiens, UniProt P23975); experiment: CNS receptor binding assay, noradrenergic transporter; details: MAP4343 10 µM; [^3H] nisoxetine; Human recombinant (CHO cells); read-out: % Inhibition of control specific binding
Method: as §1, §2

[5] = biological target: Serotoninergic 5-HT6 (Homo sapiens, UniProt P50406); experiment: CNS receptor binding assay, 5-HT6; details: MAP4343 10 µM; [^3H] LSD; Human recombinant (CHO cells); read-out: % Inhibition of control specific binding
Method: as §1, §2

[6] = system: Wistar Kyoto (WKY) rats; experiment: Locomotor activity in the open-field arena, WKY rats; assay type: in vivo, rat; details: acute, MAP4343 10 mg/kg s.c., fluoxetine 10 mg/kg i.p., ketamine 30 mg/kg i.p., 3 min, Fig. 5A
Method: After a 6-day period of acclimatization, all experimental groups received daily successive subcutaneous (250 µl per rat) and intraperitoneal (1 ml/kg) injections. WI rats received injection of vehicle (sesame oil + saline) while WKY rats were randomly assigned to […], as follow: KWY rats receiving only vehicle (sesame oil + saline) and WKY rats treated with MAP4343 (10 mg/kg, s.c.; rats received in parallel i.p. injections of saline), fluoxetine (10 mg/kg i.p., rats received in parallel s.c. injections of sesame oil) or ketamine (30 mg/kg, i.p.; rats received in parallel s.c. injections of sesame oil) (see Figure 3).
After, a 6-day period of acclimatization, the acute phase of treatment started for 4 days during behavioral tests were performed (Figure 3). All animals were injected 1h30 before the starting of behavioral test.
The animals were individually placed in the open field arena (OFA) (70 x 100 x 70 cm), with a central square (35 x 50 cm), located in a 50 lux illuminated room and videotaped during 3 min using a computerized system (VideoTrack V2.5, ViewPoint, Lyon, France).
OFA allows firstly the evaluation of total locomotor activity (LMA) thereby measuring the total distance travelled in the arena (in cm). Secondly, measurements of the activity in the center of the arena like (i) the number of entries in the center of arena and (ii) the total time spent in the center of arena (in sec) provide cues of anxiety-like behavior (Prut and Belzung, 2003). All these behavioral parameters were instantaneously measured automatically with the VideoTrack V2.5 software from the videos.

[7] = system: Wistar Kyoto (WKY) rats; experiment: Forced swimming test (FST), WKY rats; assay type: in vivo, rat; details: dose-ranging, MAP4343 15 mg/kg, Fig. 6B
Method: 3B-methoxy-PREG (also referred to as "MAP4343" in Example 4) was dissolved in sesame oil by sonication using a Sonifer-450 (Branson Ultrasonics Corporation, Danbury, USA) during 1 cycle of 5 pulses in sesame oil. Fluoxetine (Biotrend, Köln, Germany) and Ketamine (Sigma-Aldrich, St-Quentin Fallvier, France) were dissolved in sterile saline solution (NaCl 0.9%). The drug formulations were prepared freshly each day of treatment. MAP4343 was administered subcutaneously (ranging of 1-15 mg/Kg/day) while fluoxetine and ketamine were injected intraperitonealy (10 mg/Kg/day and 30 mg/Kg/day, respectively).
After a 6-day period of acclimatization, all experimental groups received daily successive subcutaneous (250 µl per rat) and intraperitoneal (1 ml/kg) injections. […]
Rats were submitted to the forced swimming test (FST), according the procedure initially described by (Detke et al., 1995) and slightly modified by (Bianchi et al., 2002). […] The pre-test and test sessions were recorded using a video camera placed above the cylinder for subsequent behavioral analysis. The immobility time (in sec) was blindly measured by two independent experimenters from recorded videos. […]
The effects of a dose-ranging administration of MAP4343 were tested in WI and WKY rats on their immobility time measured in FST.

[8] = system: microtubule-associated protein2 (MAP2); experiment: Binding (affinity) by displacement of PREG-3H; details: index of binding

T2 sequence (P08912 whole entry): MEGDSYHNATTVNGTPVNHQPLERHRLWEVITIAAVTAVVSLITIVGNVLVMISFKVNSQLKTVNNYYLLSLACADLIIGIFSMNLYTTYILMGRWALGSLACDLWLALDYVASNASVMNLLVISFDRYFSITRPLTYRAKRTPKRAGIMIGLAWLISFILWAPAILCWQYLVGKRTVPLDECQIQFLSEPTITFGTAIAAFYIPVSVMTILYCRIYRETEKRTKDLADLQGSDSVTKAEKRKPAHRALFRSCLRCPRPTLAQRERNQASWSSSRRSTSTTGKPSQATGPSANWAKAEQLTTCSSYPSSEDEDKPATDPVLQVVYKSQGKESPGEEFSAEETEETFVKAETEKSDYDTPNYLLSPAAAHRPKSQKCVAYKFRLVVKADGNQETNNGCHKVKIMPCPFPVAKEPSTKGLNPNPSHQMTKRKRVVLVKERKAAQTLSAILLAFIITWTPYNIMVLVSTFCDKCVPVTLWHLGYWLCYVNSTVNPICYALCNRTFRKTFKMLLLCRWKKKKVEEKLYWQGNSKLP
Sequence of Serotoninergic 5-HT6 (P50406 whole entry): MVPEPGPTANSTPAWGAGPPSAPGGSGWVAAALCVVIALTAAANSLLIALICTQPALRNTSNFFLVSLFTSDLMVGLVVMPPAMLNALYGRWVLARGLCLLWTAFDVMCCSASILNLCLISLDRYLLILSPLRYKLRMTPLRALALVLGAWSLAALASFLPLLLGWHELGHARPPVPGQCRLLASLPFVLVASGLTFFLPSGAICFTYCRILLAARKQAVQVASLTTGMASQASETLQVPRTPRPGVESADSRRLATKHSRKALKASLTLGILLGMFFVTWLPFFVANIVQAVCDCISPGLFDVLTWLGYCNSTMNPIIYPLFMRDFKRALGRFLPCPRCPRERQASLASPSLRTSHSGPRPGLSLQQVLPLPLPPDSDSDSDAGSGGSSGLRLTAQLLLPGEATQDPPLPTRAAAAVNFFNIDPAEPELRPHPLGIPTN
Sequence of Noradrenergic Transporter (P23975 whole entry): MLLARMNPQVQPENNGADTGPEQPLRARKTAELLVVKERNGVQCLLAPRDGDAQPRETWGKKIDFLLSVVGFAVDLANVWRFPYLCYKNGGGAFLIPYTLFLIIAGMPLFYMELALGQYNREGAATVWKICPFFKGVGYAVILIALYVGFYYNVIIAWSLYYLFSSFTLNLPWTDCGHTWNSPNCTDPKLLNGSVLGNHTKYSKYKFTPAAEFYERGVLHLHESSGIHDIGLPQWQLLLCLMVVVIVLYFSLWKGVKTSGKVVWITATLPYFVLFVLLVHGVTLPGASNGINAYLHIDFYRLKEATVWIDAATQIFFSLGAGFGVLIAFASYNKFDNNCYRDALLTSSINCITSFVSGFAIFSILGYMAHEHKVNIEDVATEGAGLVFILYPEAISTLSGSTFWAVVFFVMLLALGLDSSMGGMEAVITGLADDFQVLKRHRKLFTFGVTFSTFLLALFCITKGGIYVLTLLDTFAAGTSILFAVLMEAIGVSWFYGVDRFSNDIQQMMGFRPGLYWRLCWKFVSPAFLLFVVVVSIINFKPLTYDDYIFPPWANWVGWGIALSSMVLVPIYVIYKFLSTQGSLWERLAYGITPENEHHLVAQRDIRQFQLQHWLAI
T1 sequence (P08172 whole entry): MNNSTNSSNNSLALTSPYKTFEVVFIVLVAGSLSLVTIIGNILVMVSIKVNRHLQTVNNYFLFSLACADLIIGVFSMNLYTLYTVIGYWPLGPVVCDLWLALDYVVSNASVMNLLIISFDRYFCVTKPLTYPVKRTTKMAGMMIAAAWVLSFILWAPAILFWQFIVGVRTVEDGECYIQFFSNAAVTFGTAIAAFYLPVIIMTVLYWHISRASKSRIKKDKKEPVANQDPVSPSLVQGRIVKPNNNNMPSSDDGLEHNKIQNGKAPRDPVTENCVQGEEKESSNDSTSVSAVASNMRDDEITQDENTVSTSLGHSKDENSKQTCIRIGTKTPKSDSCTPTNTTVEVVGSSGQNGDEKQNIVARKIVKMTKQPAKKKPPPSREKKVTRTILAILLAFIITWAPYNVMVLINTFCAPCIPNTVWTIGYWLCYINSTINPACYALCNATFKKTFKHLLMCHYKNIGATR

CO[C@H]1CC[C@@]2(C)C(=CC[C@H]3[C@@H]4CC[C@H](C(C)=O)[C@@]4(C)CC[C@@H]32)C1 (stereo in doubt) [MAP4343, 3β-methoxy-pregna-5-ene-20-one]
inhibition at 10 µM [1]: 20%
inhibition at 10 µM [2]: 12%
% Inhibition of control specific binding [3]: 7%
inhibition at 10 µM [4]: 3%
inhibition at 10 µM [5]: 12%
locomotor activity (total distance travelled in the open-field arena), change as compared to WKY receiving vehicle [6]: did not modify significantly
immobility time measured in FST, change as compared to WKY receiving vehicle alone [7]: -25%
Affinity [8]: 100% of PREG
